# In patent publication US12552753B2, “Methods and compositions for targeting Tregs using CCR8 inhibitors” (Nanjing Immunophage Biomedical Co., Ltd., priority 2020, dated 2026):
# Counter-ions that a name gives are not always drawn.
# Target: CCR8 (Homo sapiens, UniProt P51685)
# Assay: Tango assay (Tango-CCR8-Gal4-CHO-K1 cells, CCL1-stimulated, ONE-Glo luminescence)
# Details: Tango Assay IC50, Inhibition of CCR8 Tango cell in vitro
# Sequence of CCR8 (P51685 whole entry, the tested form may be a part): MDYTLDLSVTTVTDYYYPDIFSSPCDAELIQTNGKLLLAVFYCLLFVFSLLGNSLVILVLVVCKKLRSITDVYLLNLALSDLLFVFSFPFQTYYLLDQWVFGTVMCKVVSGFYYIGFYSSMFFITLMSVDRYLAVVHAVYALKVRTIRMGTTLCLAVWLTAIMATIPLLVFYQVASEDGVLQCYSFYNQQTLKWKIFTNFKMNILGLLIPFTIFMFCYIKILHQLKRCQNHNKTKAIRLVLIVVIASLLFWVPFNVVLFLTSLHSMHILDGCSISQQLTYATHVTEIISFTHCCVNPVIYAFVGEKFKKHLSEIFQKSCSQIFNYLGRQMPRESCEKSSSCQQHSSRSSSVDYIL
row,IC50,Structure (SMILES)
1,> 10000 nM,"CCCC(=O)N1CCC(NS(=O)(=O)c2ccc(N)cc2)CC1 [Compound 119, 4-amino-N-(1-butyrylpiperidin-4-yl)benzenesulfonamide]"
2,575 nM,"Cc1ccccc1C(=O)Nc1ccc(S(=O)(=O)NC(C)CC2CCN(C(=O)OC(C)(C)C)CC2)c2ccccc12 (stereo not shown) [Compound 127, tert-butyl 4-(2-(4-(2-methylbenzamido)naphthalene-1-sulfonamido)propyl) piperidine-1-carboxylate]"
3,10 nM,"Cc1ccccc1C(=O)Nc1ccc(S(=O)(=O)NC(C)C=C2CCCCC2)c2ccccc12 (stereo not shown) [Compound 130, N-(4-(N-(1-cyclohexylidene-propan-2-yl)sulfamoyl)naphtha-len-1-yl)-2-methylbenzamide]"
4,3.2 nM,"Cc1ccccc1C(=O)Nc1ccc(S(=O)(=O)NC(C)C23CCC(CC2)CC3)c2ccccc12 (stereo not shown) [Compound 132, N-(4-(N-(1-(bicyclo[2.2.2]octan-1-yl)ethyl)sulfamoyl)naphthalen-1-yl)-2-methylbenzamide]"
5,> 10000 nM,"CC(NS(=O)(=O)c1ccc2[nH]c(=O)[nH]c(=O)c2c1)C1CC2CCC1CC2 (stereo not shown) [Compound 133, N-(1-(bicyclo[2.2.2]octan-2-yl)ethyl)-2,4-dioxo-1,2,3,4-tetrahydroquinazoline-6-sulfonamide]"
6,> 10000 nM,"CC(NS(=O)(=O)c1ccc2c(c1)C(=O)NCC2)C1CC2CCC1CC2 (stereo not shown) [Compound 134, N-(1-(bicyclo[2.2.2]octan-2-yl)ethyl)-1-oxo-1,2,3,4-tetrahydroisoquinoline-7-sulfonamide]"
7,> 10000 nM,"CC(NS(=O)(=O)c1ccc2[nH]c(=O)cnc2c1)C1CC2CCC1CC2 (stereo not shown) [Compound 136, N-(1-(bicyclo[2.2.2]octan-2-yl)ethyl)-2-oxo-1,2-dihydroquinoxaline-6-sulfonamide]"
8,> 10000 nM,"CC(NS(=O)(=O)c1ccc2cnccc2c1)C1CC2CCC1CC2 (stereo not shown) [Compound 139, N-(1-(bicyclo[2.2.2]octan-2-yl)ethyl)isoquinoline-6-sulfonamide]"
9,> 10000 nM,"CC(NS(=O)(=O)c1ccc(-c2cc3ccccc3[nH]2)c2ccccc12)C1CCCCC1 (stereo not shown) [Compound 149, N-(1-cyclohexylethyl)-4-(1H-indol-2-yl)naphthalene-1-sulfonamide]"
10,> 10000 nM,"CC(NS(=O)(=O)c1cccc(N2CCCCC2C(=O)O)c1)C1CCCCC1 (stereo not shown) [Compound 153, 1-(3-(N-(1-cyclohexylethyl)sulfam-oyl)phenyl)piperidine-2-carboxylic acid]"
11,> 10000 nM,"Cc1ccccc1C(=O)Nc1ccc(S(=O)(=O)NC(C)C2CCCN(C(=O)CNC(=O)OC(C)(C)C)C2)c2ccccc12 (stereo not shown) [Compound 155D, tert-butyl (2-(3-(1-(4-(2-methylbenzamido)naph-thalene-1-sulfonamido)ethyl)piper-idin-1-yl)-2-oxoethyl)carbamate]"
12,5 nM,"Cc1cc(S(=O)(=O)NC(C)C2CC3CCC2CC3)ccc1NC(=O)c1ccccc1C (stereo not shown) [Compound 162, N-(4-(N-(1-(bicyclo[2.2.2]octan-2-yl)ethyl)sulfamoyl)-2-methylphenyl)-2-methylbenzamide]"
13,99 nM,"Cc1cc(S(=O)(=O)N[C@H](C)C2CCNCC2)ccc1NC(=O)c1ccccc1 [Compound 166A, (R)-N-(2-methyl-4-(N-(1-(piperidin-4-yl)ethyl)sulfamoyl)phen-yl)benzamide hydrochloride]"

# Second part, the compound before the results:
row,Structure (SMILES),IC50
1,"CCCC(=O)N1CCC(NS(=O)(=O)c2ccc(Nc3ncnc4ccccc34)cc2)CC1 [Compound 120, N-(1-butyrylpiperidin-4-yl)-4-(quinazolin-4-ylamino)benzenesulfon-amide]",> 10000 nM
2,"Cc1cc(S(=O)(=O)N[C@H](C)C2CCNCC2)ccc1N1C(=O)c2ccccc2C1=O [Compound 122A, (R)-4-(1,3-dioxoisoindolin-2-yl)-3-methyl-N-(1-(piperidin-4-yl)ethyl)benzenesulfon-amide hydrochloride]",> 10000 nM
3,"Cc1ccccc1C(=O)Nc1ccc(S(=N)(=O)NC(C)C2CCCCC2)c2ccccc12 (stereo not shown) [Compound 123, N-(4-(N-(1-cyclohexylethyl)sulfamimidoyl)naphthalen-1-yl)-2-methylbenzamide]",3.4 nM
4,"Cc1ccccc1C(=O)Nc1ccc(S(=O)(=O)NC(C)c2ccccc2N)c2ccccc12 (stereo not shown) [Compound 124, N-(4-(N-(1-(2-aminophenyl)ethyl)sul-famoyl)naphthalen-1-yl)-2-methylbenzamide]",832 nM
5,"CC(=O)Nc1ccccc1C(C)NS(=O)(=O)c1ccc(NC(=O)c2ccccc2C)c2ccccc12 (stereo not shown) [Compound 125, N-(4-(N-(1-(2-acetamidophenyl)ethyl)sulfamoyl)naphthalen-1-yl)-2-methylbenzamide]",> 10000 nM
6,"Cc1ccccc1C(=O)Nc1ccc(S(=O)(=O)NC(C)CC2CCNCC2)c2ccccc12 (stereo not shown) [Compound 126, 2-methyl-N-(4-(N-(1-(piperidin-4-yl)propan-2-yl)sulfamoyl)naphtha-len-1-yl)benzamide]",133 nM
7,"Cc1ccccc1C(=O)Nc1ccc(S(=O)(=O)NC(C)C23CCN(CC2)CC3)c2ccccc12 (stereo not shown) [Compound 131, 2-methyl-N-(4-(N-(1-(quinuclidin-4-yl)ethyl)sulfamoyl)naphthalen-1-yl)benzamide]",303 nM
8,"CC(NS(=O)(=O)c1ccc2c(c1)C(=O)NCCC2)C1CC2CCC1CC2 (stereo not shown) [Compound 135, N-(1-(bicyclo[2.2.2]octan-2-yl)ethyl)-1-oxo-2,3,4,5-tetrahydro-1H-benzo[c]azepine-8-sulfonamide]",> 10000 nM
9,"CC(NS(=O)(=O)c1ccc2c(c1)C(=O)NC2=O)C1CC2CCC1CC2 (stereo not shown) [Compound 137, N-(1-(bicyclo[2.2.2]octan-2-yl)ethyl)-1,3-dioxoisoindoline-5-sulfonamide]",> 10000 nM
10,"CC(NS(=O)(=O)c1cccc(C(=O)O)c1)C1CCCCC1 (stereo not shown) [Compound 140, 3-(N-(1-cyclohexylethyl)sul-famoyl)benzoic acid]",> 10000 nM
11,"CC(NS(=O)(=O)c1ccc(F)c(C(=O)O)c1)C1CCCCC1 (stereo not shown) [Compound 141, 5-(N-(1-cyclohexylethyl)sul-famoyl)-2-fluorobenzoic acid]",> 10000 nM
12,"Cc1c(C(=O)O)cccc1S(=O)(=O)NC(C)C1CC2CCC1CC2 (stereo not shown) [Compound 142, 3-(N-(1-(bicyclo[2.2.2]octan-2-yl)ethyl)sulfamoyl)-2-methylbenzoic acid]",> 10000 nM
13,"Cc1c(C(=O)O)cccc1S(=O)(=O)NC(C)C1CCCCC1 (stereo not shown) [Compound 143, 3-(N-(1-cyclohexylethyl)sul-famoyl)-2-methylbenzoic acid]",> 10000 nM
14,"CC(NS(=O)(=O)c1ccc2nc(Cc3ccccc3)[nH]c2c1)C1CCCCC1 (stereo not shown) [Compound 144, 2-benzyl-N-(1-cyclohexylethyl)-1H-benzo[d]imidazole-6-sulfonamide]",2100 nM
15,"CC(NS(=O)(=O)c1ccc2nc(Nc3ccccc3)[nH]c2c1)C1CCCCC1 (stereo not shown) [Compound 145, N-(1-cyclohexylethyl)-2-(phenylamino)-1H-benzo[d]imidazole-6-sulfonamide]",870 nM
16,"CC(NS(=O)(=O)c1ccc(-c2[nH]nnc2-c2ccccc2)c2ccccc12)C1CCCCC1 (stereo not shown) [Compound 148, N-(1-cyclohexylethyl)-4-(4-phenyl-1H-1,2,3-triazol-5-yl)naphthalene-1-sulfonamide]",613 nM
17,"CC(NS(=O)(=O)c1ccc(-c2nn[nH]n2)c2ccccc12)C1CCCCC1 (stereo not shown) [Compound 150, N-(1-cyclohexylethyl)-4-(2H-tetrazol-5-yl)naphthalene-1-sulfonamide]",> 10000 nM
18,"CC(=O)Nc1ccccc1COc1ccc(S(=O)(=O)NC(C)C2CCCCC2)c2ccccc12 (stereo not shown) [Compound 151, N-(2-(((4-(N-(1-cyclohexylethyl)sulfamoyl)naphthalen-1-yl)oxy)methyl)phenyl)acetamide]",1360 nM
19,"CC(NS(=O)(=O)c1cccc(N2CCCC2C(=O)O)c1)C1CCCCC1 (stereo not shown) [Compound 152, 1-(3-(N-(1-cyclohexylethyl)sulfam-oyl)phenyl)pyrrolidine-2-carboxylic acid]",> 10000 nM
20,"CC(NS(=O)(=O)c1cccc(N2CCC(C(=O)O)C2)c1)C1CCCCC1 (stereo not shown) [Compound 154, 1-(3-(N-(1-cyclohexylethyl)sulfam-oyl)phenyl)pyrrolidine-3-carboxylic acid]",> 10000 nM
21,"Cc1ccccc1C(=O)Nc1ccc(S(=O)(=O)NC(C)C2CCCN(C(=O)CN(C)C)C2)c2ccccc12 (stereo not shown) [Compound 159, N-(4-(N-(1-(1-(2-(dimethylamino)acetyl)piperidin-3-yl)ethyl)sulfamoyl)naph-thalen-1-yl)-2-methylbenzamide]",> 10000 nM
22,"Cc1cc(S(=O)(=O)N[C@H](C)C2CCN(C(=O)OC(C)(C)C)CC2)ccc1NC(=O)c1ccccc1C [Compound 160, (R)-tert-butyl 4-(1-(3-methyl-4-(2-methylbenzamido)phen-ylsulfonamido)ethyl)piper-idine-1-carboxylate]",> 10000 nM
23,"Cc1cc(S(=O)(=O)N[C@H](C)C2CCNCC2)ccc1NC(=O)c1ccccc1C [Compound 161A, (R)-2-methyl-N-(2-methyl-4-(N-(1-(piperidin-4-yl)ethyl)sulfamoyl)phen-yl)benzamide hydrochloride]",42 nM
24,"Cc1ccccc1C(=O)Nc1ccc(S(=O)(=O)NC(C)C2CC3CCC2CC3)c(C)c1 (stereo not shown) [Compound 163, N-(4-(N-(1-(bicyclo[2.2.2]octan-2-yl)ethyl)sulfamoyl)-3-methylphenyl)-2-methylbenzamide]",86 nM
25,"Cc1ccccc1C(=O)Nc1ccc(S(=O)(=O)N[C@H](C)C2CCN(C(=O)OC(C)(C)C)CC2)cc1Cl [Compound 164, (R)-tert-butyl 4-(1-(3-chloro-4-(2-methylbenzamido)phen-ylsulfonamido)ethyl)piper-idine-1-carboxylate]",> 10000 nM
26,"Cc1ccccc1C(=O)Nc1ccc(S(=O)(=O)N[C@H](C)C2CCNCC2)cc1Cl [Compound 165A, (R)-N-(2-chloro-4-(N-(1-(piperidin-4-yl)ethyl)sulfamoyl)phen-yl)-2-methylbenzamide hydrochloride]",12 nM
27,"Cc1cc(S(=O)(=O)NC(C)C2CCNCC2)ccc1NC(=O)c1ccccc1C (stereo not shown) [Compound 167A, 2-methyl-N-(2-methyl-4-(N-(1-(piperidin-4-yl)ethyl)sulfamoyl)phen-yl)benzamide hydrochloride]",46 nM
